# Experimental data taken from US6342487B1, “Compositions containing at least one farnesyl transferase inhibitor and at least one topoisomerase inhibitor and compositions containing at least one farnesyl transferase inhibitor and at least one taxoid” (Aventis Pharma Rorer S.A., priority 1998, dated 2002).
# Tests used:
# human colon tumor HCT116 = assay: Activity on the colon tumor HCT116 grafted by the subcutaneous route onto female nu/nu Swiss mice; format: in vivo
# Protocol: This efficacy can be quantified, for example, by the net log 10 of the killed cells which is determined according to the following formula:
# net log 10 of the killed cells=[T-C (days)−duration of the treatment (days)]/[3.32·Td]
# in which T-C represents the delay in tumor growth which is the median time, in days, which the tumors of the treated group (T) and the tumors of the control group (C) took to reach a predetermined value (1 g for example) and Td represents the time, in days, necessary for the doubling of the volume of the tumor in the control animals [T. H. CORBETT et al., Cancer, 40, 2660-2680 (1977); F. M. SCHABEL et al., Cancer Drug Development, Part B, Methods in Cancer Research, 17, 3-51, New York, Academic Press Inc. (1979)].
# A product is considered as very active if net log 10 of the killed cells is greater than or equal to 2.8. […] In such a case, the net log 10 of the killed cells has a positive value.
# The combination, used at its own maximum tolerated dose, in which each of the constituents will be present at a dose which is generally lower than or equal to its maximum tolerated dose, will show a therapeutic synergy when the net log 10 of the killed cells is higher than the value of the net log 10 of the killed cells of the better constituent when it is administered alone.
# The efficacy of the combinations on solid tumors can be determined experimentally in the following manner:
# The animals subjected to the experiment, generally mice, are grafted bilaterally by the subcutaneous route with 30 to 60 mg of a tumor fragment on day 0. In the case of treatment of advanced tumors, the tumors are allowed to develop to the desired size, the animals having insufficiently developed tumors being eliminated. The selected animals are divided as a function of their tumor weight in a homogeneous manner between the treated and control groups, before the start of the treatments. Chemotherapy generally commences 12 to 14 days after the implantation of the tumor and the animals are observed every day. The different groups of animals are weighed every day until the maximum loss of weight is reached and then the groups are weighed at least once per week until the end of the test. The tumors are measured 2 to 3 times per week, with the aid of a slide calliper, according to two measurements in mm which are then converted into tumor weight according to the following formula: […]
# The tumors are measured two or three times per week until the tumor reaches approximately 2 g or until the death of the animal if this occurs before the tumor reaches 2 g. An autopsy is carried out on the animals at the time of sacrifice.
# The antitumor activity is determined as a function of the different parameters recorded.
# [1] = Toxicity of the combination of product A with irinotecan; format: in vivo; settings: in combination with the topoisomerase inhibitor irinotecan
# [2] = Table 1, tumor doubling time 3.4 days, 248 mg/kg per injection, days 14-25 (2x/d.)
# [3] = Table 1, tumor doubling time 3.4 days, 400 mg/kg per injection, days 14-25 (2x/d.)
# [4] = Table 1, tumor doubling time 3.4 days, 645 mg/kg per injection, days 14-25 (2x/d.)
# [5] = Table 2, tumor doubling time 4.5 days, 645 mg/kg per injection, days 14-25 (2x/d.)
# [6] = Table 1, tumor doubling time 3.4 days, doses 25 and 248 mg/kg per injection, days 14, 18, 22 (2x/d.) and 25-36 (2x/d.)
# [7] = Table 1, tumor doubling time 3.4 days, doses 25 and 400 mg/kg per injection, days 14, 18, 22 (2x/d.) and 25-36 (2x/d.)
# [8] = Table 1, tumor doubling time 3.4 days, doses 25 and 645 mg/kg per injection, days 14, 18, 22 (2x/d.) and 25-36 (2x/d.)
# [9] = Table 1, tumor doubling time 3.4 days, doses 41 and 248 mg/kg per injection, days 14, 18, 22 (2x/d.) and 25-36 (2x/d.)
# [10] = Table 1, tumor doubling time 3.4 days, doses 41 and 400 mg/kg per injection, days 14, 18, 22 (2x/d.) and 25-36 (2x/d.)
# [11] = Table 1, tumor doubling time 3.4 days, doses 41 and 645 mg/kg per injection, days 14, 18, 22 (2x/d.) and 25-36 (2x/d.)
# [12] = Table 2, tumor doubling time 4.5 days, 11.2 mg/kg per injection, days 14, 18, 22 (2x/d.)
# [13] = Table 2, tumor doubling time 4.5 days, 18.7 mg/kg per injection, days 14, 18, 22 (2x/d.)
# [14] = Table 2, tumor doubling time 4.5 days, 31.2 mg/kg per injection, days 14, 18, 22 (2x/d.)
# [15] = Table 2, tumor doubling time 4.5 days, 52.0 mg/kg per injection, days 14, 18, 22 (2x/d.)
compound,measurement,setting,value
"C=C(C(=O)N1C[C@@H]2[C@]3(c4ccc(C)cc4)CC[C@@H](c4ccccc43)[C@]2(C(=O)O)C1)c1ccccc1OC (racemic) [A, (3aRS,4SR,9SR,9aRS)-4,9-ethano-2-[2-(2-methoxyphenyl)propenoyl]-9-(4-methylphenyl)-2,3,3a,4,9,9a-hexahydro-1H-benzo[f]isoindole-3a-carboxylic acid]",(T-C)-(Duration of treatment),human colon tumor HCT116; [2],-10.9 days
same,Long-term survivors on day 154,human colon tumor HCT116; [2],0/6
same,net log10 of killed cells,human colon tumor HCT116; [2],−1.0
same,(T-C)-(Duration of treatment),human colon tumor HCT116; [3],-4.2 days
same,Long-term survivors on day 154,human colon tumor HCT116; [3],0/6
same,net log10 of killed cells,human colon tumor HCT116; [3],−0.4
same,(T-C)-(Duration of treatment),human colon tumor HCT116; [4],-2.7 days
same,Long-term survivors on day 154,human colon tumor HCT116; [4],0/6
same,net log10 of killed cells,human colon tumor HCT116; [4],−0.2
same,(T-C)-(Duration of treatment),human colon tumor HCT116; [5],6.9 days
same,Long-term survivors on day 154,human colon tumor HCT116; [5],0/5
same,net log10 of killed cells,human colon tumor HCT116; [5],0.5
same,toxicity in combination with irinotecan,[1],does not increase the toxicity of irinotecan
"CCc1c2c(nc3ccc(OC(=O)N4CCC(N5CCCCC5)CC4)cc13)-c1cc3c(c(=O)n1C2)COC(=O)[C@]3(O)CC [Irinotecan, irinotecan]",(T-C)-(Duration of treatment),human colon tumor HCT116; [6],19.1 days
same,Long-term survivors on day 154,human colon tumor HCT116; [6],1/6
same,net log10 of killed cells,human colon tumor HCT116; [6],1.7
same,Long-term survivors on day 154,human colon tumor HCT116; [7],2/7
same,net log10 of killed cells,human colon tumor HCT116; [7],3.3
same,Long-term survivors on day 154,human colon tumor HCT116; [8],3/8
same,net log10 of killed cells,human colon tumor HCT116; [8],3.6
same,Long-term survivors on day 154,human colon tumor HCT116; [9],4/8
same,net log10 of killed cells,human colon tumor HCT116; [9],3.3
same,(T-C)-(Duration of treatment),human colon tumor HCT116; [10],55.9 days
same,Long-term survivors on day 154,human colon tumor HCT116; [10],4/7
same,net log10 of killed cells,human colon tumor HCT116; [10],5.0
same,Long-term survivors on day 154,human colon tumor HCT116; [11],4/8
same,net log10 of killed cells,human colon tumor HCT116; [11],3.4
same,(T-C)-(Duration of treatment),human colon tumor HCT116; [12],8.3 days
same,net log10 of killed cells,human colon tumor HCT116; [12],0.6
same,Long-term survivors on day 154,human colon tumor HCT116; [13],0/5
same,net log10 of killed cells,human colon tumor HCT116; [13],1.1
same,Long-term survivors on day 154,human colon tumor HCT116; [14],0/5
same,net log10 of killed cells,human colon tumor HCT116; [14],1.0
same,(T-C)-(Duration of treatment),human colon tumor HCT116; [15],19.5 days
same,Long-term survivors on day 154,human colon tumor HCT116; [15],0/5
same,net log10 of killed cells,human colon tumor HCT116; [15],1.3
same,(T-C)-(Duration of treatment),"human colon tumor HCT116; mouse, in vivo, 86 mg/kg",toxic
